Assays:
Olfr983 = assay: OR transcript level by RT-qPCR after in vivo odorant exposure; parameters: species or system mouse; key to olfr983 candidate OR (RNAseq) confirmed by qPCR: The transcript downregulation of 21 out of the 26 olfactory receptor candidates obtained by RNAseq was confirmed by qPCR; false RNAseq positive candidates, namely OR candidates for which in fact mRNA was not downregulated following acetophenone exposure; conditions: for Olfr983 mRNA level relative to unexposed controls: 5% odorant, 5 hours, in vivo, RT-qPCR
Experimental: In vivo exposure to odorant: Starting 48 h before experiments, mice were habituated to pure DMSO on a cotton ball. 200 μl were pipetted directly onto the cotton and placed in the cage, replacing any cotton that was already in the cage for nest-making purposes.
On the day of the experiment, mice receiving odorants were transferred to a different room, where they were exposed to a cotton ball on which 200 μl of odorant diluted in pure DMSO were deposited. Exposures started in the morning between 8 and 10 am (that is two hours after lights were on) and mice were killed and dissected between 1 and 3 pm. […] If a number of different odorants were tested in the same experiment, a different overpressurized room would always be used for each odorant to avoid odor cross-contamination.
After odorant exposure, mice were killed by cervical dislocation and immediately decapitated. The main olfactory epithelia (MOE), were harvested in their entirety and transferred to a tube containing 600 μl of lysis buffer and β-mercaptoethanol (RNAeasy kit, Qiagen, following the manufacturer protocol) and a 0.5 cm diameter steel ball, and then put on ice. Samples were then homogenized using a FastPrep®-24 instrument (MP Biomedicals) at 6 m/s for 30 s and left on ice. RNA extraction was performed on all samples in parallel using the Qiagen RNeasy Mini® kit following the manufacturer's instructions. Two DNase treatments were performed on all samples: first using the Qiagen RNase-Free DNase Set® and then using the Life Technologies Ambion DNase I® kit. RNA samples were then aliquoted and stored at −80° C.
RNA concentrations were determined using an Amersham Ultrospec® 3100 Pro spectrophotometer, and RNA quality was evaluated with an Agilent Technologies 2100 Bioanalyzer®. […]
qPCR Ct values were analyzed using an in-house developed Microsoft Excel® macro file. […] Ct values were converted to quantities relative to the maximum for each given gene. Selected reference genes were then analyzed for variance using the geNorm algorithm. […]

OSNs expressing olfr109 = assay: pS6 immunolabeling with OR in situ hybridization after odorant exposure; format: in vivo, mouse; conditions: 5% acetophenone, 60 minutes
Experimental: (§1) In order to independently validate the identity of an acetophenone receptor obtained with the RNAseq approach, the potential colocalization following acetophenone exposure of a neuronal activity marker (the phosphorylated ribosomal protein S6 (pS6) (Knight et al., 2012, Cell, 151, 1126-1137) and specific olfactory receptors were evaluated. To this aim, in-situ hybridizations were performed on sections of olfactory tissue with probes targeting receptor mRNAs followed by immunolabeling of pS6. The probes used were directed against the transcripts of most of the ORs determined as responsive including Olfr983 transcripts (encoding a known acetophenone receptor), Olfr171 transcripts (encoding a known ethyl isobutyrate receptor), and Olfr145 transcripts, encoding a newly identified receptor by RNAseq. Before analysis, mice were exposed to either 5% acetophenone, 5% ethyl isobutyrate, or a negative control condition for 60 minutes. […] 66% (Olfr983) and 70% (Olfr145) of the neurons were positive for pS6 after acetophenone exposure, while only 11% of the neurons expressing Olfr171 were positive for pS6 after exposure to this compound.

OSNs expressing olfr1377 = assay: as above; format: in vivo, mouse; conditions: 5% acetophenone, 60 minutes
Experimental: as §1

OSNs expressing olfr143 = assay: as above; format: in vivo, mouse; conditions: 5% acetophenone, 60 minutes
Experimental: as §1

OSNs expressing olfr160 = assay: as above; format: in vivo, mouse; conditions: 5% acetophenone, 60 minutes
Experimental: as §1

OSNs expressing olfr19 = assay: as above; format: in vivo, mouse; conditions: 5% acetophenone, 60 minutes
Experimental: as §1

OSNs expressing olfr229 = assay: as above; format: in vivo, mouse; conditions: 5% acetophenone, 60 minutes
Experimental: as §1

OSNs expressing olfr30 = assay: as above; format: in vivo, mouse; conditions: 5% acetophenone, 60 minutes
Experimental: as §1

OSNs expressing olfr478 = assay: as above; format: in vivo, mouse; conditions: 5% acetophenone, 60 minutes
Experimental: as §1

OSNs expressing olfr556 = assay: as above; format: in vivo, mouse; conditions: 5% acetophenone, 60 minutes
Experimental: as §1

OSNs expressing olfr745 = assay: as above; format: in vivo, mouse; conditions: 5% acetophenone, 60 minutes
Experimental: as §1

OSNs expressing olfr901 = assay: as above; format: in vivo, mouse; conditions: 5% acetophenone, 60 minutes
Experimental: as §1

OSNs expressing olfr922 = assay: as above; format: in vivo, mouse; conditions: 5% acetophenone, 60 minutes
Experimental: as §1

OSNs expressing olfr935 = assay: as above; format: in vivo, mouse; conditions: 5% acetophenone, 60 minutes
Experimental: as §1

[1] = tested on: neurons expressing Olfr145; assay: as above; format: in vivo, mouse; conditions: 60 minutes
Experimental: as §1

[2] = tested on: neurons expressing Olfr983; assay: as above; format: in vivo, mouse; conditions: 60 minutes
Experimental: as §1

Compound: CC(=O)c1ccccc1 [acetophenone]
- olfr983 candidate OR (RNAseq) confirmed by qPCR (Olfr983; 5% acetophenone exposure): y
- Olfr983 mRNA level relative to unexposed controls (Olfr983): decrease
- Olfr983 mRNA level relative to unexposed controls (Olfr983; listed as Acetophenone): downregulates
- olfr109 ps6 positive (OSNs expressing olfr109): y (neuronal activation (i.e. pS6 signal in a fraction of neuron exceeding 15% relative to controls))
- olfr1377 ps6 positive (OSNs expressing olfr1377): y (neuronal activation (i.e. pS6 signal in a fraction of neuron exceeding 15% relative to controls))
- olfr143 ps6 positive (OSNs expressing olfr143): y (neuronal activation (i.e. pS6 signal in a fraction of neuron exceeding 15% relative to controls))
- olfr160 ps6 positive (OSNs expressing olfr160): y (neuronal activation (i.e. pS6 signal in a fraction of neuron exceeding 15% relative to controls))
- olfr19 ps6 positive (OSNs expressing olfr19): y (neuronal activation (i.e. pS6 signal in a fraction of neuron exceeding 15% relative to controls))
- olfr229 ps6 positive (OSNs expressing olfr229): y (neuronal activation (i.e. pS6 signal in a fraction of neuron exceeding 15% relative to controls))
- olfr30 ps6 positive (OSNs expressing olfr30): y (neuronal activation (i.e. pS6 signal in a fraction of neuron exceeding 15% relative to controls))
- olfr478 ps6 positive (OSNs expressing olfr478): y (neuronal activation (i.e. pS6 signal in a fraction of neuron exceeding 15% relative to controls))
- olfr556 ps6 positive (OSNs expressing olfr556): y (neuronal activation (i.e. pS6 signal in a fraction of neuron exceeding 15% relative to controls))
- olfr745 ps6 positive (OSNs expressing olfr745): y (neuronal activation (i.e. pS6 signal in a fraction of neuron exceeding 15% relative to controls))
- olfr901 ps6 positive (OSNs expressing olfr901): y (neuronal activation (i.e. pS6 signal in a fraction of neuron exceeding 15% relative to controls))
- olfr922 ps6 positive (OSNs expressing olfr922): y (neuronal activation (i.e. pS6 signal in a fraction of neuron exceeding 15% relative to controls))
- olfr935 ps6 positive (OSNs expressing olfr935): y (neuronal activation (i.e. pS6 signal in a fraction of neuron exceeding 15% relative to controls))
- olfr145 ps6 positive ([1]; 5% acetophenone): y (neuronal activation (i.e. pS6 signal in a fraction of neuron exceeding 15% relative to controls))
- fraction of Olfr145-expressing neurons positive for pS6 ([1]; 5% odorant, in vivo): 70%
- olfr983 ps6 positive ([2]; 5% acetophenone): y (neuronal activation (i.e. pS6 signal in a fraction of neuron exceeding 15% relative to controls))
- fraction of Olfr983-expressing neurons positive for pS6 ([2]; 5% odorant, in vivo): 66%

— US10473645B2, “Methods for identifying a receptor for a ligand and uses thereof” (UNIVERSITE DE GENEVE, priority 2014, dated 2019)
